The source of these data is ChEMBL document CHEMBL5150068, “Structure-Based Design of Tropane Derivatives as a Novel Series of CCR5 Antagonists with Broad-Spectrum Anti-HIV-1 Activities and Improved Oral Bioavailability” (J Med Chem, 2022).

For orientation: IC50 means the concentration that gives 50% inhibition. Low values mean inhibition by little substance, high ones a need for much substance. Usually CC50 stands for the concentration that lowers cell viability or growth by half. The low end stands for greater toxicity to the cells, the high end for lower toxicity to the cells. By Tmax is commonly meant the time at which the peak concentration occurs. The half-life is how long it takes for the measured level to halve. One may read the clearance as a measure of how efficiently the substance is removed, as volume per time. By AUC(0-inf) is commonly meant the area under the concentration-time curve extrapolated to infinity. The low end stands for low exposure, the high end for high exposure. What is called Cmax is the maximum level reached in the sampled fluid or tissue.

One data set concerns the target Cytochrome P450 2C19 (Homo sapiens, UniProt P33261). The data set is described as follows: Inhibition of CYP2C19 (unknown origin). It is filed as ADME.
The target in the next data set is Cytochrome P450 2C9 (Homo sapiens, UniProt P11712). As to the kind of experiment: Inhibition of CYP2C9 (unknown origin). It is filed as ADME.
The nature of data set [1]: Cytotoxicity against human HOS-CD4-CCR5 cells incubated for 48 hrs by MTT assay. The class given is toxicity, cell-based. (Formazan colour is commonly taken as a measure of viable cells.)
Data set [2] is described as follows: Tmax in Sprague-Dawley rat at 10 mg/kg, po measured upto 24 hrs. Conditions: in vivo. It is filed as ADME, organism-based.
For a further data set, the target named is Cytochrome P450 2D6 (Homo sapiens, UniProt P10635). The data set is described as follows: Inhibition of CYP2D6 (unknown origin). It is filed as ADME.
A short description of data set [3]: Cytotoxicity against human PM1 cells incubated for 48 hrs by MTT assay. The class given is toxicity, cell-based.
Data set [4] can be described thus: Half life in Sprague-Dawley rat at 2 mg/kg, iv measured upto 24 hrs. It is filed as ADME, organism-based. Conditions: Sprague-Dawley, in vivo.
For another data set, the target named is T1, Cytochrome P450 1A2 (Homo sapiens, UniProt P05177).
T1 sequence (P05177 whole entry): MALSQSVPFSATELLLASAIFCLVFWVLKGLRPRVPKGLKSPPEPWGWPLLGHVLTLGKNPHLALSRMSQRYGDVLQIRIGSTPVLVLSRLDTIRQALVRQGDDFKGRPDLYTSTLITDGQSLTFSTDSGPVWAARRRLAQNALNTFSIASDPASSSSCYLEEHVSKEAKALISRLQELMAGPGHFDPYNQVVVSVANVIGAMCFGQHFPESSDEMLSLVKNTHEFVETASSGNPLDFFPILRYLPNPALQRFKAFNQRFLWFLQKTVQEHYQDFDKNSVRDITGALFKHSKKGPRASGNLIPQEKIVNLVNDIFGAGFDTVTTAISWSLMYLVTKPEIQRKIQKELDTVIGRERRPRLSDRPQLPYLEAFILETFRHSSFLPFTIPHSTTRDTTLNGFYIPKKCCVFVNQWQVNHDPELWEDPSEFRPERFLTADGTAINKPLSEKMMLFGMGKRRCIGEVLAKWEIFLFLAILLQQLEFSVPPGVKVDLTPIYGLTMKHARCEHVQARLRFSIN
As to the kind of experiment: Inhibition of CYP1A2 (unknown origin). It is filed as ADME.

Data set [5] is described as follows: Clearance in Sprague-Dawley rat at 1 mg/kg, iv measured upto 24 hrs. It is filed as ADME, organism-based. The conditions noted are these: in vivo.
A short description of data set [6]: AUC (0 to infinitive) in Sprague-Dawley rat at 10 mg/kg, po measured upto 24 hrs. Details: dose 10 mg/kg, time < 24 hrs, route po. It is filed as ADME, organism-based. Conditions: Sprague-Dawley, in vivo.
Data set [7] in a line: Half life in Sprague-Dawley rat at 1 mg/kg, iv measured upto 24 hrs. The class given is ADME, organism-based. The conditions noted are these: in vivo.
A short description of data set [8]: Cytotoxicity against human TZM-bl cells incubated for 48 hrs by MTT assay. The class given is toxicity, cell-based.
Data set [9] can be described thus: Cmax in Sprague-Dawley rat at 10 mg/kg, po measured upto 24 hrs. The arrangement: time < 24 hrs, dose 10 mg/kg, route po. The class given is ADME, organism-based. The conditions noted are these: in vivo.
A short description of data set [10]: Cytotoxicity against human PBMC cells incubated for 48 hrs by MTT assay. The class given is toxicity, cell-based.

Sequence of Cytochrome P450 2C9 (P11712 whole entry): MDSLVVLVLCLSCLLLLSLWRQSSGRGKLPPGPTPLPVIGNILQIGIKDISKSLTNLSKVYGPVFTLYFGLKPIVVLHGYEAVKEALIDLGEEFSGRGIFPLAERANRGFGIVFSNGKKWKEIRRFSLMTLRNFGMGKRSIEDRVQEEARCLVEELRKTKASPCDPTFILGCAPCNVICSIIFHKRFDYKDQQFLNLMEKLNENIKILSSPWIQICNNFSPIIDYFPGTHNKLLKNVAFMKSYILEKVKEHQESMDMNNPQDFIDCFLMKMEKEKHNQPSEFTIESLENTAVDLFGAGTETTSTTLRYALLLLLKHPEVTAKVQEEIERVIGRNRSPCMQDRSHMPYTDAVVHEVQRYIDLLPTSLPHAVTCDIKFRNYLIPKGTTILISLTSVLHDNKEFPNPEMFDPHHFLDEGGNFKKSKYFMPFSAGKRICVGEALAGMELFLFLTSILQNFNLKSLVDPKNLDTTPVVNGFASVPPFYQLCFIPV
Sequence of Cytochrome P450 2C19 (P33261 whole entry): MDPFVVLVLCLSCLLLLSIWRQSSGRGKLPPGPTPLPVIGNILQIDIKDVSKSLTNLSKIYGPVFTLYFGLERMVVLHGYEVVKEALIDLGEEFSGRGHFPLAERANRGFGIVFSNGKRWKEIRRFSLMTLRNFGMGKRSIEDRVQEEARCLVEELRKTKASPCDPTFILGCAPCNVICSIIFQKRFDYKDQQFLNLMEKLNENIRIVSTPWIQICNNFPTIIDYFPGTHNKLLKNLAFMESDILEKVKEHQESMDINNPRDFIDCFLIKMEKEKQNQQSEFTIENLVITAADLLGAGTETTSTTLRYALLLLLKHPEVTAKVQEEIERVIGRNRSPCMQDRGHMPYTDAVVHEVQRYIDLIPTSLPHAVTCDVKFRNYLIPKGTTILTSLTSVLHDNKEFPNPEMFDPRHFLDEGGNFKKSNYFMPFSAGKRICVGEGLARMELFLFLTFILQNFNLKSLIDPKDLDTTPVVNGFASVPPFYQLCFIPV
Sequence of Cytochrome P450 2D6 (P10635 whole entry): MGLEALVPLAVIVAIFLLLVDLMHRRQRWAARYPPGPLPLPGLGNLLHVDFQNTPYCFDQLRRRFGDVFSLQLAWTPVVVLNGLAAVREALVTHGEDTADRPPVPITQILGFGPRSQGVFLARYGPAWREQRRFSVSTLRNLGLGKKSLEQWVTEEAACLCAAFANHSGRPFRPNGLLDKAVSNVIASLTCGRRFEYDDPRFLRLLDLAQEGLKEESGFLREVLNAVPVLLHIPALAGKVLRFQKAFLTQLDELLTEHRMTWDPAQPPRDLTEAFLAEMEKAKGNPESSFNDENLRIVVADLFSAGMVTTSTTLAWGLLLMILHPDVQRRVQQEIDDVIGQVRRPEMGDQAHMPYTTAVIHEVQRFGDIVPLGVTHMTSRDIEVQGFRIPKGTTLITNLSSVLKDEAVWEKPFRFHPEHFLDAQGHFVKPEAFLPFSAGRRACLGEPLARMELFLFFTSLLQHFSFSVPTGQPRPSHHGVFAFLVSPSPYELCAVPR

For the molecule `Cc1nnc(C(C)C)n1[C@@H]1C[C@H]2CC[C@@H](C1)N2CC[C@H](NC(=O)C1CCC(F)(F)CC1)c1ccccc1` [MARAVIROC], the IC50 at Cytochrome P450 2C19 is more than 25 µM; against Cytochrome P450 2C9, 14.4 µM; against Cytochrome P450 2D6, more than 25 µM; against Cytochrome P450 1A2 it was more than 25 µM. In addition, the CC50 at 48 h in [1], in data set [3], in data set [8] and in [10] was more than 200 µM throughout. Besides, the time to peak (Tmax) in [2] turned out to be 120 min. Moreover, the half-life in data set [4] and in [7] was 54 min in each case. Also, the clearance in data set [5] turned out to be 74 mL/min/kg. This molecule also yielded an AUC(0-inf) in data set [6] of 12.4 ng·h/mL. The molecule further showed a Cmax in data set [9] of 5.5 ng/mL.
